Where two headings read alike, the source gives them in different places.
Legend:
E. coli [1] = settings: cited from earlier work
Acinetobacter baumannii = experiment: MIC by broth microdilution against Acinetobacter baumannii; type: cell-based
Protocol: (§1) In a typical study MIC tests were performed by broth microdilution in line with CLSI susceptibility testing standards. Bacterial inocula were prepared at ca. 1×10^6 CFU/mL by diluting 100-fold a 0.5 McFarland suspension in CA-MHB with TES. Microtiter plate wells containing 50 μL of antibacterial solutions at 2×the final concentrations were diluted 2-fold with 50 μL of inoculum to give a final inoculum of ca. 5×10^5 CFU/mL and desired test concentrations of antibacterial agents. Test microtiter plates were incubated according to CLSI guidelines and read visually. MIC values corresponded to the first well with no visible growth.
The results of antibacterial activity of amikacin, Ceftazidime-avibactam, Ceftriaxone with sulbactam and EDTA, Meropenem and Meropenem with avibactum and EDTA against highly resistant strains of Acinetobacter baumannii are given in Table 7.

K. pneumoniae [2] = experiment: MIC of Time Kill Assay isolates, K. pneumoniae; type: cell-based; settings: Klebsiella pneumoniae; TKA isolates
Protocol: Objective: The in-vitro Time Kill Assay study was conducted to determine the log reduction in 5 characterised MDR isolates.
• Isolates: 5 isolates-E. coli (3), K. pneumoniae (2) • Compound tested: Meropenem; Meropenem Avibactam (4); Meropenem EDTA (10 mM); Meropenem Avibactam (4) EDTA (10 mM) • 1 log—90% killing, 2 log 99% killing and 3 log 99.9% killing. Bactericidal: 3 log reduction (99.9% killing) • MIC: […]

[3] = system: all grouped isolates from India; experiment: MIC by broth microdilution against all grouped isolates from India; type: cell-based, resistant bacterial strains
Protocol: as §1
There was a marked improvement in antibacterial activity, compared to MEM alone, observed for the triple combinations, for MEM/AVI [4 mg/L]/EDTA [10 mM] and MEM/AVI [4 mg/L]/EDTA [20 mM], the reduction in MIC90 was 0.06 μg/mL and ≤0.002 μg/mL, respectively.

K. pneumoniae [4] = experiment: MIC by broth microdilution against Klebsiella; type: cell-based, Klebsiella pneumoniae
Protocol: as §1
The results of antibacterial activity of amikacin, Ceftazidime-avibactam, Ceftriaxone with sulbactam and EDTA, Meropenem and Meropenem with avibactam and EDTA against highly resistant strains of Klebsiella (93. 3% Mem NS) are given in Table 4.

K. pneumoniae [5] = experiment: Frequency of Resistance (FOR) Study, K. pneumoniae; type: cell-based
Protocol: (§2) Objective: The in-vitro study was conducted to determine the frequency of resistance in 8 characterized isolates.
(§3) • Isolates: 8 isolates-E. coli (3), K. pneumoniae (2), A. baumannii (1) and P. aeruginosa (2) • Compound tested: Meropenem; Meropenem Avibactam (4); Meropenem EDTA (10 mM); Meropenem Avibactam (4) EDTA (10 mM) • Antibiotic Concentration used: […]

[6] = system: Non-Enterobacteriaceae (non-fermenter isolates); experiment: MIC by broth microdilution against Non-Enterobacteriaceae; type: cell-based
Protocol: as §1

A. baumannii = experiment: Frequency of Resistance (FOR) Study, A. baumannii; note: key: TMTC: To more to count; type: cell-based; settings: strain 8 - A. baumannii
Protocol: as §2, §3

[7] = system: Stenotrophomonas maltophilia; experiment: MIC by broth microdilution against Stenotrophomonas maltophilia; type: cell-based; settings: highly resistant strains
Protocol: as §1
The results of antibacterial activity of amikacin, Ceftazidime-avibactam, Ceftriaxone with sulbactam and EDTA, Meropenem and Meropenem with avibactum and EDTA against highly resistant strains of Stenotrophomonas maltophilia are given in Table 8.

E. coli [8] = experiment: Frequency of Resistance (FOR) Study, E. coli; type: cell-based
Protocol: as §2, §3

P. aeruginosa = experiment: Frequency of Resistance (FOR) Study, P. aeruginosa; type: cell-based; note: key: TMTC: To more to count
Protocol: as §2, §3

C[C@@H](O)[C@H]1C(=O)N2C(C(=O)O)=C(S[C@@H]3CN[C@H](C(=O)N(C)C)C3)[C@H](C)[C@H]12 [Meropenem, (4R,5S,6S)-3-(((3S,5S)-5-(dimethylcarbamoyl)pyrrolidin-3-yl)thio)-6-((R)-1-hydroxyethyl)-4-methyl-7-oxo-1-azabicyclo[3.2.0]hept-2-ene-2-carboxylic acid]
88.9%: MEM-NS isolates ([6]; n=284)
93.3%: MEM-NS isolates (K. pneumoniae [4]; n=112, listed as MEM)
>32 µg/mL: MIC90 (Acinetobacter baumannii; highly resistant strains) | MIC50 ([3]; all grouped isolates (606)) | MIC50 (K. pneumoniae [4]; highly resistant strains) | MIC90 (K. pneumoniae [4]; highly resistant strains) | MIC50 ([6]; highly resistant strains) | MIC90 ([6]; highly resistant strains) | MIC50 [7] | MIC90 [7]
303: count, 24 H of Incubation (K. pneumoniae [5]; strain 6 - K. pneumoniae, ATB concentration 8x)
> 32 µg/mL: MIC90 (Acinetobacter baumannii; Acinetobacter baumannii) | MIC50 (Acinetobacter baumannii; Acinetobacter baumannii, highly resistant strains) | MIC90 (Acinetobacter baumannii; MEM-NS isolates (n=163)) | MIC (K. pneumoniae [2]) | MIC50 [3] | MIC90 [3] | MIC90 ([3]; MEM-NS isolates (n=534)) | MIC90 ([3]; all grouped isolates (606)) | MIC50 (K. pneumoniae [4]; Klebsiella pneumoniae, MEM-NS isolates (n=112), read-out: MIC50) | MIC90 (K. pneumoniae [4]; Klebsiella pneumoniae, highly resistant strains, read-out: MIC90) | MIC90 (K. pneumoniae [4]; MEM-NS isolates (n=112)) | MIC50 [6] | MIC90 [6] | MIC90 ([6]; highly resistant strains, listed as MEM) | MIC50 ([7]; Stenotrophomonas maltophilia, read-out: MIC50) | MIC90 ([7]; Stenotrophomonas maltophilia, read-out: MIC90)
98.2%: MEM-NS isolates (Acinetobacter baumannii; n=163)
0.008 to 0.06 µg/mL: CLSI Range of MIC (E. coli [1])
TMTC: count, 24 H of Incubation (K. pneumoniae [5]; strain 6 - K. pneumoniae, ATB concentration 4x) | count, 24 H of Incubation (K. pneumoniae [5]; strain 7 - K. pneumoniae, ATB concentration 4x) | count, 24 H of Incubation (K. pneumoniae [5]; strain 7 - K. pneumoniae, ATB concentration 8x) | count, 24 H of Incubation (K. pneumoniae [5]; strain 7 - K. pneumoniae, ATB concentration 16x) | count, 24 H of Incubation (A. baumannii; ATB concentration 4x) | count, 24 H of Incubation (A. baumannii; ATB concentration 8x) | count, 24 H of Incubation (A. baumannii; ATB concentration 16x) | count, 24 H of Incubation (E. coli [8]; strain 4 - E. coli, ATB concentration 4x) | count, 24 H of Incubation (E. coli [8]; strain 4 - E. coli, ATB concentration 8x) | count, 24 H of Incubation (E. coli [8]; strain 4 - E. coli, ATB concentration 16x) | count, 24 H of Incubation (P. aeruginosa; strain 2 - P. aeruginosa, ATB concentration 4x) | count, 24 H of Incubation (P. aeruginosa; strain 2 - P. aeruginosa, ATB concentration 8x) | count, 24 H of Incubation (P. aeruginosa; strain 2 - P. aeruginosa, ATB concentration 16x) | count, 24 H of Incubation (P. aeruginosa; strain 3 - P. aeruginosa, ATB concentration 4x) | count, 24 H of Incubation (P. aeruginosa; strain 3 - P. aeruginosa, ATB concentration 8x) | count, 24 H of Incubation (P. aeruginosa; strain 3 - P. aeruginosa, ATB concentration 16x)
0: count, 24 H of Incubation (K. pneumoniae [5]; strain 6 - K. pneumoniae, ATB concentration 16x) | count, 24 H of Incubation (E. coli [8]; strain 1 - E. coli, ATB concentration 4x) | count, 24 H of Incubation (E. coli [8]; strain 1 - E. coli, ATB concentration 8x) | count, 24 H of Incubation (E. coli [8]; strain 1 - E. coli, ATB concentration 16x) | count, 24 H of Incubation (E. coli [8]; strain 5 - E. coli, ATB concentration 4x) | count, 24 H of Incubation (E. coli [8]; strain 5 - E. coli, ATB concentration 8x) | count, 24 H of Incubation (E. coli [8]; strain 5 - E. coli, ATB concentration 16x)
